These results are taken from patent publication US8143251B2, “Triazolotriazines as kinase inhibitors” (Incyte Corporation, priority 2006, dated 2012).

Molecules are shown by their SMILES.

The target in the assay is T1, c-Met kinase (histidine-tagged c-Met catalytic domain fusion protein) (Homo sapiens, UniProt P08581).
T1 construct: histidine-tagged c-Met catalytic domain fusion protein (Invitrogen, #PV3143) was used for the assay; histidine tag; purchased Invitrogen PV3143
Put plainly: In vitro c-Met kinase enzyme assay. In kind it is biochemical. Conditions: poly Glu-Tyr phosphorylation, 5 μM ATP, 25 minutes at 30° C.; read-out: IC50 for the inhibition of c-Met kinase. How it is done: Compounds were screened in vitro for their ability to inhibit c-Met kinase activity. The IC50 values of compounds for the inhibition of c-Met kinase were determined as described in the literature with some modifications (Wang, X. et al, Mol. Cancer. Ther. 2003, 2(11):1085-1092; Calic, M. et al., Croatica Chemical ACTA. 2005, 78(3):367-374). Briefly, histidine-tagged c-Met catalytic domain fusion protein (Invitrogen, #PV3143) was used for the assay. IC50 measurements were based on the degree of phosphorylation of poly Glu-Tyr (Sigma-Aldrich, #PO275) that was coated (0.01 mg/per well) on 96-well microplates (R&D systems, #DY990). The reaction was carried out in a 50 μL solution containing 50 mM HEPES (pH 7.5), 10 mM MnCl2, 10 mM MgCl2, 0.5 mM DTT, 100 μM Na3VO4, 5 μM ATP (Cell Signaling Technology, #9804) and serial dilutions of individual compounds. The reaction lasted for 25 minutes at 30° C. After the reaction was completed, the contents of the plates was discarded. […] The optical density was measured immediately using a microplate reader at 450 nm with wavelength correction at 540 nm. IC50 values were calculated with the GraphPad Prism software. The linear range (i.e., the time period over which the rate remained equivalent to the initial rate) was determined for the kinase and IC50 determinations were performed within this range. […]

T1 sequence (P08581 1078-1345 limits assumed): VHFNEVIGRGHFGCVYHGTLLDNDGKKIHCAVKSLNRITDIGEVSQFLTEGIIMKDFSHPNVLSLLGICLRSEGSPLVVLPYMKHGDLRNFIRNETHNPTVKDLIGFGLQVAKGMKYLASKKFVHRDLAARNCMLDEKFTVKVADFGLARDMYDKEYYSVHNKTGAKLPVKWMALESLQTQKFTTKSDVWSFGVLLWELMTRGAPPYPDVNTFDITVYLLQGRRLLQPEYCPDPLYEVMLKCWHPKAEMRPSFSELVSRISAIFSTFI

On to `COc1ccc(C2(c3nnc4ncc(-c5ccccc5)nn34)CC2)cc1` [Example 26, 3-[1-(4-Methoxyphenyl)cyclopropyl]-6-phenyl[1,2,4]triazolo[4,3-b][1,2,4]triazine], for which the IC50 (commonly the concentration that inhibits the measured activity by half) is 12.9 nM.
